The values that follow are results of earlier work, collected in US11864558B2, “Herbicidal compositions containing N-phosphonomethyl glycine and an auxin herbicide” (Monsanto Technology LLC, priority 2004, dated 2024).

The conditions of this data set: acid form; 25° C.

For `O=C(O)CNCP(=O)(O)O` [glyphosate, N-phosphonomethylglycine], the solubility in water was 1.16 % by weight.
